The data set in a line: Determination of bioavailability in a dog. The class given is in vivo. Particulars: plasma, male beagle dogs, IV 1 mg/kg vs oral gavage 5 mg/kg. On the procedure: The following protocol was used to estimate the bioavailability of test compounds in a dog. Test compounds were formulated in vehicles compatible with intravenous and oral dosing. Test compounds were administered to male beagle dogs via an intravenous bolus at 1 mg/kg (1 mg/mL at a dose volume of 1 mL/kg) or via oral gavage at 5 mg/kg (1 mg/mL at a dose volume of 5 mL/kg). Blood samples were collected via the contralateral (to intravenous bolus) jugular vein or via other accessible vein, at various timepoints following administration out to 24 hours post dose. Plasma samples (EDTA) were obtained by centrifugation (2200×g for 10 minutes at 5° C.) and stored frozen ([…]) until analyzed for parent compound via LC/MS/MS. Pharmacokinetic parameters were estimated from the plasma concentration time data by standard non-compartmental methods utilizing standard analysis software. By comparing the area under the curve (AUC) for IV and PO administration estimates of oral bioavailability were determined.
The molecule `CC[C@@H](NC(=O)N1C(=O)[C@H](Cc2ccnc(N)c2)[C@H]1C(=O)N(C)c1ccncc1)c1ccccc1` [Compound 42] returned a bioavailability greater than 30%.

The molecule `CC[C@@H](NC(=O)N1C(=O)[C@H](Cc2ccnc(N)c2)[C@H]1C(=O)N(C)c1ncccn1)c1ccccc1` [Compound 84] gave a bioavailability greater than 30%.

As to `CN(C(=O)[C@@H]1[C@@H](Cc2ccnc(N)c2)C(=O)N1C(=O)N[C@@H](C1CCCCC1)C1CC1)c1ccccc1` [Compound 36], the bioavailability lay in the range of 11 to 30%.

The molecule `CC[C@@H](NC(=O)N1C(=O)[C@H](Cc2ccnc(N)c2)[C@H]1C(=O)N(C)c1ccccc1)C1CCCCC1` [Compound 27] showed a bioavailability greater than 30%.

`CC[C@@H](NC(=O)N1C(=O)[C@H](Cc2ccnc(N)c2)[C@H]1C(=O)N(CC)c1ncccn1)C1CCCCC1` [Compound 39]: the bioavailability was no more than 10%.

`CN(C(=O)[C@@H]1[C@@H](Cc2ccnc(N)c2)C(=O)N1C(=O)N[C@@H](C1CCCCC1)C(F)(F)F)c1ncccn1` [Compound 21] registered a bioavailability of no more than 10%.

Molecule `CC[C@@H](NC(=O)N1C(=O)[C@H](Cc2ccnc(N)c2)[C@H]1C(=O)N(C)c1ccncc1)c1cccc(Cl)c1` [Compound 90] had a bioavailability greater than 30%.

In turn, `CC[C@@H](NC(=O)N1C(=O)[C@H](Cc2cc(C)nc(N)c2)[C@H]1C(=O)N(C)c1ccccc1)C1CCCCC1` [Compound 91] yielded a bioavailability greater than 30%.

The molecule `CC[C@@H](NC(=O)N1C(=O)[C@H](Cc2ccnc(N)c2)[C@H]1C(=O)N(C)c1ccncc1)c1cccnc1` [Compound 59] registered a bioavailability of 11 to 30%.

`CN(C(=O)[C@@H]1[C@@H](Cc2ccnc(N)c2)C(=O)N1C(=O)N[C@@H](C1CCCCC1)C1CC1)c1ccncc1` [Compound 52] displayed a bioavailability of no more than 10%.

`CC[C@@H](NC(=O)N1C(=O)[C@H](Cc2ccnc(NC)c2)[C@H]1C(=O)N(C)c1ncccn1)C1CCCCC1` [Compound 80] showed a bioavailability greater than 30%.

Consider `CC[C@@H](NC(=O)N1C(=O)[C@H](Cc2ccnc(N)c2)[C@H]1C(=O)N(C)c1ccncc1)C1CCCCC1` [Compound 25], for which the bioavailability is 11 to 30%.

Turning to `CC[C@@H](NC(=O)N1C(=O)[C@H](Cc2ccnc(N)c2)[C@H]1C(=O)N(C)c1ccncc1)c1cccc(C)c1` [Compound 87], the bioavailability was greater than 30%.

`CC[C@@H](NC(=O)N1C(=O)[C@H](Cc2ccnc(N)c2)[C@H]1C(=O)N(C)c1ncccn1)c1cccnc1` [Compound 61] showed a bioavailability of no more than 10%.

The values are drawn from US20190315711A1 (eXIthera Pharmaceuticals, Inc., priority 2016, published 2019).
